The values below come from patent US20070065484A1, “In situ occlusion using natural biodegradable polysaccharides” (priority 2005, published 2007).

The structures appear in SMILES notation. Like-named read-outs stand apart in the source and are kept apart here.

The data set has as its system PC-12 cells. The following applies: incubation 15 min. The protocol: Cell suspensions were prepared as follows: PC-12 cells (ATCC; passage 5; 75% confluency) were harvested from a T-75 flask using Trypsin-EDTA for 2 minutes. The cells were placed in a 15 mL polyethylene conical (VWR) and centrifuged in F-12k media without serum for 4 minutes at 500 rpm. The cells were counted using a hemocytometer, centrifuged for 4 minutes at 500 rpm, and resuspended at 600,000 cells/mL in sterile PBS.
In order to determine the effect of individual components of the matrix forming compositions on cell viability, solutions A-G were independently mixed with PC-12 cells. 50 uL of cell suspension was added to 350 uL of solutions A-G (Table 4). After a 15 minute incubation, cell viability was assessed using a Live/Dead™ Viability/Cytotoxicity Kit (cat. # L3224; Molecular Probes, Eugene, Oreg.).
The effect of a formed matrix on cell viability was also tested. To form the PD-A matrix, solution #1 (200 mg PD-A, 10 uL TEMED, 20 uL 1N HCl, 470 uL PBS) was added in the amount of 200 uL to a 1.6 ml eppendorf (VWR). Solution #2 (400 mg PD-A, 10 mg Potassium persulfate, 75K PC-12 cells, 500 uL PBS ) was added in the amount of 200 uL to solution #1 in the eppendorf and mixed for 10 seconds. After a 15 minute incubation, cell viability was assessed using the Live/Dead™ Viability/Cytotoxicity Kit.

`CN(C)CCN(C)C` [TEMED/PBS, N,N,N′,N′-Tetramethylethylenediamine]: the “Cell viability (%)” value (0.2% (V/V) in PBS) is 10-30%.
On to `O=S(=O)([O-])OOS(=O)(=O)[O-].[Na+].[Na+]` [Sodium persulfate], for which the “Cell viability (%)” value (5 mg/ml in PBS) is 90%.
As for `N.N.O=S(=O)(O)OOS(=O)(=O)O` [Ammonium persulfate], the “Cell viability (%)” value runs as follows: (10 mg/ml in PBS) 90%; (120 mg/ml in PBS) 90%.
`O=S(=O)([O-])OOS(=O)(=O)[O-].[K+].[K+]` [Potassium persulfate]: the “Cell viability (%)” value (10 mg/ml in PBS) turned out to be 90%.
